System: direct pancreatic cancer xenografts (fine needle aspiration cells)
Assay: Ex vivo perturbability assay, low-density microarray RT-PCR
Type: cell-based
Set-up: key to RRM1 gene expression / NFKB1 gene expression / BNIP3L gene expression / VHL gene expression / DCK gene expression / HIF1B gene expression / IGF1R gene expression / MAPK1 gene expression / MAP2K2 gene expression / JUN gene expression / IHH gene expression: % of untreated control (treated sample normalized to untreated)
Settings: treated normalized to untreated control
Source text: Direct pancreatic cancer derived xenografts: Resected pancreatic adenocarcinomas are routinely implanted in nude mice at the Johns Hopkins Medical Institutions as a method to obtain enriched populations of neoplastic cells under an IRB-approved protocol from residual pancreatic cancer tumors. Tumor specimens from Whipple resection specimens were divided into 2-3 mm^3 pieces in antibiotic-containing RPMI media. Pieces of non-necrotic tissue were selected and immersed in Matrigel. Under anesthesia with isofluorane, tumors were implanted into five-to-six week-old female athymic (nu/nu) mice purchased from Harlan (Harlan Laboratories, Washington, D.C.). This research protocol was approved by the Johns Hopkins University Animal Use and Care Committee arid animals were maintained in accordance to guidelines of the American Association of Laboratory Animal Care. Tumors were propagated to subsequent cohorts of mice until a sufficient number were available for drug testing.
Fine needle aspiration (FNA): FNAs on mice were performed according to standard cytopathologic practice using 10 cc syringes and 25-gauge needles. The procedure was performed under inhaled general anesthesia with isofluorane. During each FNA procedure the first pass was smeared onto glass slides and used for morphologic analysis and quality control, (DiffQuik™ and Papanicoloau), and the second through sixth passes were used to acquire viable cells.
Ex vivo assay: FNA passes used to acquire viable cells were immediately transferred into 10 ml sterile prewarmed complete RPMI-1640 culture medium containing 10% FBS, penicillin (200 ug/ml), and streptomycin (200 ug/ml). Equivalent aliquots of cells were seeded in two wells of a 6-well polypropylene microplate. […] Following treatment, non-adherent and adherent cells (collected by scraping) were pooled together in a 1.5 mL microcentrifuge tube and centrifuged at 500 g for 5 mm at 4° C. After washing with PBS, cells were lysed in 100 μL of ice-cold RLT.
RNA extraction and cDNA generation: Total RNA was extracted from cells using the RNeasy™ Mini Kit (Qiagen, Valencia, Calif.) following the manufacturer's instructions. cDNA was synthesized using iScript cDNA synthesis kit (Bio-Rad) following the manufacturer's instructions.
Low-density micro arrays (LDMA): The samples were run in a customized assay with a 384-well format (ABI, Foster City, Calif.), where the expression of 45 to 381 relevant genes can be quantitatively tested. For this example, the array was designed with 8 replicated sections containing 48 wells, with primers of one gene per well: 3 housekeeping genes (HK: UBC, HPRT, SDHA), and 45 genes of interest. 50 μL of cDNA plus 50 μL of ABI mastermix were loaded onto each of two contiguous lanes to have duplicated readouts of every sample, and were run by real-time reverse transcriptase PCR (RT-PCR). The amount of change in the target genes was calculated by comparing the threshold cycle (CT) of each gene to the geometric mean of the CTs of the HK genes. Relative expression of the target genes was estimated using the formula: relative expression=2−^ΔCT, where ΔCT=CT (target gene)−CT (average of the 3 HK genes). The experiment was run in duplicate and mean values are analyzed.
Data analysis: The expression level of each gene in the treated sample was normalized to that of the untreated control. A significant change was defined when the gene expression either increases two-fold or more (>200%), or decreases to half or more (<50%). The rest is considered uninformative.

Nc1ccn([C@@H]2O[C@H](CO)[C@@H](O)C2(F)F)c(=O)n1 [gemcitabine]
AXIN2 gene expression (case #1): 67
BAX gene expression (case #1): 91
BNIP3L gene expression (case #1): 109
BRAF gene expression (case #1): 116
BRCA1 gene expression (case #1): 81
CCND1 gene expression (case #1): 127
CXCR4 gene expression (case #1): 100
CyclinB1 gene expression (case #1): 68
DCK gene expression (case #1): 164
EGFR gene expression (case #1): 124
ERCC1 gene expression (case #1): 107
FOS gene expression (case #1): 113
GADD45A gene expression (case #1): 108
GLI2 gene expression (case #1): 72
HIF1A gene expression (case #1): 126
HIF1B gene expression (case #1): 99
IGF1R gene expression (case #1): 51
IGFBP3 gene expression (case #1): 135
IHH gene expression (case #1): 113
MAP2K2 gene expression (case #1): 127
MAPK3 gene expression (case #1): 152
MDM2 gene expression (case #1): 134
MSLN gene expression (case #1): 101
NOTCH1 gene expression (case #1): 158
NOTCH2 gene expression (case #1): 113
PLK1 gene expression (case #1): 50
PSCA gene expression (case #1): 106
PTCH gene expression (case #1): 81
SHH gene expression (case #1): 70
Survivin gene expression (case #1): 81
TGFA gene expression (case #1): 99
VEGF gene expression (case #1): 106
VHL gene expression (case #1): 104
p21 gene expression (case #1): 96
AXIN2 gene expression (case #2): 63
BAX gene expression (case #2): 95
BNIP3L gene expression (case #2): 96
BRAF gene expression (case #2): 98
BRCA1 gene expression (case #2): 63
CCND1 gene expression (case #2): 128
CXCR4 gene expression (case #2): 5
CyclinB1 gene expression (case #2): 99
DCK gene expression (case #2): 112
EGFR gene expression (case #2): 101
ERCC1 gene expression (case #2): 78
FOS gene expression (case #2): 115
GADD45A gene expression (case #2): 108
GLI2 gene expression (case #2): 82
HIF1A gene expression (case #2): 111
HIF1B gene expression (case #2): 129
IGF1R gene expression (case #2): 105
IGFBP3 gene expression (case #2): 205
IHH gene expression (case #2): 131
MAP2K2 gene expression (case #2): 78
MAPK1 gene expression (case #2): 104
MAPK3 gene expression (case #2): 71
MDM2 gene expression (case #2): 92
MSLN gene expression (case #2): 118
NFKB1 gene expression (case #2): 138
NOTCH1 gene expression (case #2): 138
NOTCH2 gene expression (case #2): 119
PLK1 gene expression (case #2): 34
PSCA gene expression (case #2): 127
PTCH gene expression (case #2): 102
RRM1 gene expression (case #2): 166
SHH gene expression (case #2): 108
Survivin gene expression (case #2): 110
TGFA gene expression (case #2): 113
VEGF gene expression (case #2): 101
VHL gene expression (case #2): 116
p21 gene expression (case #2): 110
AXIN2 gene expression (case #3): 44
BAX gene expression (case #3): 78
BNIP3L gene expression (case #3): 82
BRAF gene expression (case #3): 93
BRCA1 gene expression (case #3): 84
CCND1 gene expression (case #3): 106
CXCR4 gene expression (case #3): 43
CyclinB1 gene expression (case #3): 48
DCK gene expression (case #3): 80
EGFR gene expression (case #3): 70
ERCC1 gene expression (case #3): 88
FOS gene expression (case #3): 123
GADD45A gene expression (case #3): 104
GLI2 gene expression (case #3): 73
HIF1A gene expression (case #3): 106
HIF1B gene expression (case #3): 106
IGF1R gene expression (case #3): 66
IGFBP3 gene expression (case #3): 49
IHH gene expression (case #3): 130
MAP2K2 gene expression (case #3): 106
MAPK3 gene expression (case #3): 109
MDM2 gene expression (case #3): 137
MSLN gene expression (case #3): 91
NFKB1 gene expression (case #3): 94
NOTCH1 gene expression (case #3): 132
NOTCH2 gene expression (case #3): 103
PLK1 gene expression (case #3): 36
PSCA gene expression (case #3): 115
PTCH gene expression (case #3): 53
RRM1 gene expression (case #3): 81
SHH gene expression (case #3): 65
Survivin gene expression (case #3): 58
TGFA gene expression (case #3): 92
VEGF gene expression (case #3): 86
VHL gene expression (case #3): 118
p21 gene expression (case #3): 99
AXIN2 gene expression (case #4): 142
BAX gene expression (case #4): 100
BNIP3L gene expression (case #4): 115
BRAF gene expression (case #4): 175
BRCA1 gene expression (case #4): 343
CCND1 gene expression (case #4): 171
CXCR4 gene expression (case #4): 13
CyclinB1 gene expression (case #4): 124
DCK gene expression (case #4): 176
EGFR gene expression (case #4): 54
ERCC1 gene expression (case #4): 94
FOS gene expression (case #4): 108
GADD45A gene expression (case #4): 78
GLI2 gene expression (case #4): 11
HIF1A gene expression (case #4): 146
HIF1B gene expression (case #4): 56
IGF1R gene expression (case #4): 41
IGFBP3 gene expression (case #4): 130
IHH gene expression (case #4): 92
JUN gene expression (case #4): 83
MAP2K2 gene expression (case #4): 146
MAPK1 gene expression (case #4): 68
MAPK3 gene expression (case #4): 108
MDM2 gene expression (case #4): 43
MSLN gene expression (case #4): 89
NFKB1 gene expression (case #4): 104
NOTCH1 gene expression (case #4): 134
NOTCH2 gene expression (case #4): 92
PLK1 gene expression (case #4): 15
PSCA gene expression (case #4): 81
PTCH gene expression (case #4): 93
RRM1 gene expression (case #4): 79
SHH gene expression (case #4): 91
Survivin gene expression (case #4): 166
TGFA gene expression (case #4): 85
VEGF gene expression (case #4): 103
VHL gene expression (case #4): 127
p21 gene expression (case #4): 102
AXIN2 gene expression (case #5): 210
BAX gene expression (case #5): 109
BNIP3L gene expression (case #5): 90
BRAF gene expression (case #5): 146
BRCA1 gene expression (case #5): 95
CCND1 gene expression (case #5): 141
CXCR4 gene expression (case #5): 229
CyclinB1 gene expression (case #5): 53
DCK gene expression (case #5): 132
EGFR gene expression (case #5): 71
ERCC1 gene expression (case #5): 105
FOS gene expression (case #5): 112
GADD45A gene expression (case #5): 121
GLI2 gene expression (case #5): 118
HIF1A gene expression (case #5): 108
HIF1B gene expression (case #5): 65
IGF1R gene expression (case #5): 61
IGFBP3 gene expression (case #5): 122
IHH gene expression (case #5): 141
JUN gene expression (case #5): 135
MAP2K2 gene expression (case #5): 151
MAPK1 gene expression (case #5): 86
MAPK3 gene expression (case #5): 95
MDM2 gene expression (case #5): 73
MSLN gene expression (case #5): 100
NFKB1 gene expression (case #5): 163
NOTCH1 gene expression (case #5): 89
NOTCH2 gene expression (case #5): 56
PLK1 gene expression (case #5): 21
PSCA gene expression (case #5): 102
PTCH gene expression (case #5): 48
RRM1 gene expression (case #5): 92
SHH gene expression (case #5): 113
Survivin gene expression (case #5): 67
TGFA gene expression (case #5): 97
VEGF gene expression (case #5): 107
VHL gene expression (case #5): 79
p21 gene expression (case #5): 143

— US20090221522A1, “METHODS TO CORRECT GENE SET EXPRESSION PROFILES TO DRUG SENSITIVITY” (The Johns Hopkins University, priority 2008, published 2009)
